One test deals with late blight fungus. Type of test: in vivo, tomato (variety: Ponderosa). To be noted: for synergistic effect in mixed use with Compound No. 1: within the same concentration range as the preceding table.
Test [1] relates to downy mildew. Kind of test: Cucumber downy mildew treating effect test (Test Example 1, Compound No. 1 with other fungicides). Type of test: in vivo, cucumber (variety: Sagami Hanjiro). How it is done: A cucumber (variety: Sagami Hanjiro) was cultivated in a plastic pot of 7.5 cm in diameter, and when it reached the bifoliate stage, a spore suspension of downy mildew was spray-inoculated thereto. Each of the liquids to be tested was sprayed thereto 17 hours thereafter using a spray gun at a ratio of 5 ml per seedling. In addition, the above-described Compound No. 1 liquid was also sprayed in the same manner. After keeping in a constant temperature chamber at 22 to 24° C. for 6 days, area of the lesion on the first leaf was inspected to calculate lesion area ratio (%), with the results shown in Table 3 and Table 4. In addition, each of the theoretical values of the infection ratio calculated based on the Colby's formula is also shown by the parentheses in Table 3 and Table 4.

The subject of test [2] is downy mildew. Kind of test: Cucumber downy mildew treating effect test (Reference Example, Compound No. 1 with spreaders). Type of test: in vivo, cucumber (variety: Sagami Hanjiro). Particulars: no mixed use of spreader. How it is done:
An effect reinforcing component was dispersed in water to a concentration of from 1,000 times to 10,000 times, and then the above-described Compound No. […] In this case, the spreaders shown in Table 1 and Table 2 were used as the effect reinforcing components. In addition, for the sake of comparison, a predetermined concentration (63 ppm or 16 ppm) of Compound No. 1 liquid containing no effect reinforcing component was prepared in the same manner as the above-described water dispersion.
A cucumber (variety: Sagami Hanjiro) was cultivated in a plastic pot of 7.5 cm in diameter, and when it reached the bifoliate stage, a spore suspension of downy mildew was spray-inoculated thereto. Each of the water dispersions to be tested was sprayed thereto 17 hours thereafter using a spray gun at a ratio of 5 ml per seedling. In addition, the above-described Compound No. 1 liquid was also sprayed in the same manner. After keeping in a constant temperature chamber at 22 to 24° C. for 6 days, area of the lesion on the first leaf was inspected to calculate lesion area ratio (%), with the results shown in Table 1 and Table 2. In addition, each of the theoretical values of the infection ratio calculated based on the Colby's formula was also shown by the parentheses in Table 1 and Table 2. In this connection, results similar to those which are shown in Table 1 and Table 2 are obtained within the same concentration range when a liquid comprising the Compound No. 1 and at least one selected from the group consisting of Dimethomorph, Chlorothalonil, a copper compound, Iprovalicarb, Zoxamide, phosphorous acid or a salt thereof, Fluazinam, Cyazofamid, Flumorph, Benthiavalicarb-isopropyl, Ethaboxam, Methalaxyl-M and Benalaxyl-M was used instead of the Compound No. 1 liquid.

Setting [3] is: other fungicide alone 25 g/ha, 300 liters per hectare.
Setting [4] is: other fungicide alone 100 g/ha, 300 liters per hectare.
The mark [5] stands for this setting: other fungicide alone 250 g/ha, 300 liters per hectare.
Setting [6] is: other fungicide alone 250 ppm (Compound No. 1 0 ppm).
[7] abbreviates: other fungicide alone 200 ppm (Compound No. 1 0 ppm).

We go through 17 molecules from patent publication US8802708B2 (priority 2004, dated 2014).

“And” between values parts separate entries of the source, which are not always exact repeats. Equal entries are not always repeated. Where two headings read alike, the source gives them in different places.

For `[Cl-].[Cu+2].[Cu+2].[OH-].[OH-].[OH-]` [Basic copper chloride, basic copper chloride], the lesion area ratio with late blight fungus (other fungicide alone 500 ppm, sprayed at 10 ml per seedling) amounted to 100%; with late blight fungus (other fungicide alone 1,000 ppm, sprayed at 10 ml per seedling) it was 100%; with downy mildew [1] (other fungicide alone 1,000 ppm (Compound No. 1 0 ppm)), 100%.
Take `COC(=O)[C@@H](C)N(C(=O)Cc1ccccc1)c1c(C)cccc1C` [Benalaxyl-M]: the lesion area ratio in the test with late blight fungus (setting [3]) is recorded as 50.0%; in the test with late blight fungus (setting [4]), 25.0%; in the test with late blight fungus (setting [5]), 6.25%.
As to `CC(C)OC(=O)N[C@H](C(=O)N[C@H](C)c1nc2ccc(F)cc2s1)C(C)C` [Benthiavalicarb-isopropyl], the “synergistic effect in mixed use with Compound No. 1” value in the test on late blight fungus is “Synergistic effect can also be obtained”.
Turning to `N#Cc1c(Cl)c(Cl)c(Cl)c(C#N)c1Cl` [Chlorothalonil], the lesion area ratio with late blight fungus (other fungicide alone 13 ppm, sprayed at 10 ml per seedling) was determined as 100%; in the test with late blight fungus (other fungicide alone 25 ppm, sprayed at 10 ml per seedling), 17%; in the test with late blight fungus (setting [4]), 18.8%; with late blight fungus (setting [5]), 25.0%; in the test with downy mildew [1] (other fungicide alone 500 ppm (Compound No. 1 0 ppm)), 100%.
Consider `Cc1c(Br)c2ccc(F)cc2n1S(=O)(=O)c1ncn(S(=O)(=O)N(C)C)n1` [Compound No. 1, 1-(N,N-dimethylsulfamoyl)-3-(3-bromo-6-fluoro-2-methylindol-1-yl)sulfonyl-1,2,4-triazole], for which the lesion area ratio with late blight fungus (Compound No. 1 1 ppm, no mixed use of other fungicide, sprayed at 10 ml per seedling) was 83%; in the test on late blight fungus (Compound No. 1 alone 25 g/ha, 300 liters per hectare) it was 62.5% and 37.5%; in the test with late blight fungus (Compound No. 1 alone 250 g/ha, 300 liters per hectare) it was 31.3% and 25.0% and 37.5%; in the test on downy mildew [2] (Compound No. 1 4 ppm) it was 30%; with downy mildew [2] (Compound No. 1 16 ppm), 60%; with downy mildew [2] (Compound No. 1 63 ppm) it was 40%. For the same molecule, the lesion area ratio came to 30% with downy mildew [1] (Compound No. 1 4 ppm, no mixed use of other fungicide); 60% with downy mildew [1] (Compound No. 1 16 ppm, no mixed use of other fungicide); 40% in the test with downy mildew [1] (Compound No. 1 63 ppm, no mixed use of other fungicide).
For the molecule `[Cu+2].[OH-].[OH-]` [Cupric hydroxide, cupric hydroxide], the lesion area ratio in the test on late blight fungus (other fungicide alone 200 g/ha, 300 liters per hectare) was 50.0%; in the test on late blight fungus (other fungicide alone 800 g/ha, 300 liters per hectare), 43.3%; in the test with late blight fungus (other fungicide alone 2000 g/ha, 300 liters per hectare), 43.8%.
For the molecule `Cc1ccc(-c2c(Cl)nc(C#N)n2S(=O)(=O)N(C)C)cc1` [Cyazofamid], the lesion area ratio worked out at 25.0% with late blight fungus (other fungicide alone 10 g/ha, 300 liters per hectare) and 18.8% in the test on late blight fungus (other fungicide alone 40 g/ha, 300 liters per hectare).
As for `COc1ccc(C(=CC(=O)N2CCOCC2)c2ccc(Cl)cc2)cc1OC` [Dimethomorph], the lesion area ratio turned out to be 87.5% with late blight fungus (setting [3]); 75.0% in the test with late blight fungus (setting [4]); 62.5% with late blight fungus (setting [5]); 100% with downy mildew [1] (setting [6]); 100% with downy mildew [1] (other fungicide alone 350 ppm (Compound No. 1 0 ppm)).
On to `CCNc1nc(CC)c(C(=O)NC(C#N)c2cccs2)s1` (centres unmarked) [Ethaboxam], for which the figures for the lesion area ratio with late blight fungus (setting [3]), in the test on late blight fungus (setting [4]) and in the test with downy mildew [1] (setting [7]) were 6.25%, 6.25% and 30%, respectively.
`O=[N+]([O-])c1cc(C(F)(F)F)c(Cl)c([N+](=O)[O-])c1Nc1ncc(C(F)(F)F)cc1Cl` [Fluazinam]: the lesion area ratio in the test with late blight fungus (setting [4]) and in the test on late blight fungus (setting [5]) was 37.5% in each case.
`COc1ccc(/C(=C\C(=O)N2CCOCC2)c2ccc(F)cc2)cc1OC` [Flumorph]: the lesion area ratio with late blight fungus (setting [4]) worked out at 31.3%; in the test on late blight fungus (setting [5]) it was 12.5%.
For `Cc1ccc(C(C)NC(=O)[C@@H](NC(=O)OC(C)C)C(C)C)cc1` (some centres unmarked) [Iprovalicarb], the lesion area ratio stood at 25.0% in the test with late blight fungus (setting [3]), 6.25% in the test with late blight fungus (setting [4]), 6.25% in the test on late blight fungus (setting [5]) and 100% in the test with downy mildew [1] (setting [6]).
With `COCC(=O)N(c1c(C)cccc1C)[C@H](C)C(=O)OC` [Metalaxyl-M], the “synergistic effect in mixed use with Compound No. 1” value with late blight fungus was “Synergistic effect can also be obtained”.
Consider `O=[PH]([O-])[O-].[K+].[K+]` [Potassium phosphite, potassium phosphite (K2HPO3)], for which, in the test with downy mildew [1] (setting [6]), the lesion area ratio is on record as 100%.
In the case of `CCCOC(=O)NCCCN(C)C` [Propamocarb], the lesion area ratio in the test with late blight fungus (setting [4]) came to 87.5%; in the test with late blight fungus (other fungicide alone 400 g/ha, 300 liters per hectare), 75.0%; in the test on downy mildew [1] (other fungicide alone 1,600 ppm (Compound No. 1 0 ppm)) it was 60%.
As for `O=[PH]([O-])[O-].[Na+].[Na+]` [Sodium phosphite, sodium phosphite (Na2HPO3)], the lesion area ratio is given as 75.0% in the test on late blight fungus (other fungicide alone 500 g/ha, 300 liters per hectare); 75.0% in the test with late blight fungus (other fungicide alone 1000 g/ha, 300 liters per hectare); 50.0% in the test with late blight fungus (other fungicide alone 1500 g/ha, 300 liters per hectare).
`CCC(C)(NC(=O)c1cc(Cl)c(C)c(Cl)c1)C(=O)CCl` (centres unmarked) [Zoxamide]: the lesion area ratio with late blight fungus (setting [3]) is reported as 43.8%; in the test with late blight fungus (setting [4]) it was 50.0%; in the test on downy mildew [1] (setting [7]), 100%.
